Publication PMC6060247, “Disruption of Amino Acid Homeostasis by Novel ASCT2 Inhibitors Involves Multiple Targets” (Frontiers in Pharmacology, 2018)

How the values were obtained:
LAT1 (SLC7A5) = target: T1, LAT1 (SLC7A5) (Rattus norvegicus, UniProt Q63016); assay: isoleucine uptake in Xenopus laevis oocytes expressing h4F2hc/rLAT1; assay type: cell-based
T1 construct: with human 4F2hc

SNAT1 (SLC38A1) = target: T2, SNAT1 (SLC38A1) (Homo sapiens, UniProt Q9H2H9); assay: glutamine uptake in Xenopus laevis oocytes expressing hSNAT1; assay type: cell-based
T2 sequence (Q9H2H9 1-487): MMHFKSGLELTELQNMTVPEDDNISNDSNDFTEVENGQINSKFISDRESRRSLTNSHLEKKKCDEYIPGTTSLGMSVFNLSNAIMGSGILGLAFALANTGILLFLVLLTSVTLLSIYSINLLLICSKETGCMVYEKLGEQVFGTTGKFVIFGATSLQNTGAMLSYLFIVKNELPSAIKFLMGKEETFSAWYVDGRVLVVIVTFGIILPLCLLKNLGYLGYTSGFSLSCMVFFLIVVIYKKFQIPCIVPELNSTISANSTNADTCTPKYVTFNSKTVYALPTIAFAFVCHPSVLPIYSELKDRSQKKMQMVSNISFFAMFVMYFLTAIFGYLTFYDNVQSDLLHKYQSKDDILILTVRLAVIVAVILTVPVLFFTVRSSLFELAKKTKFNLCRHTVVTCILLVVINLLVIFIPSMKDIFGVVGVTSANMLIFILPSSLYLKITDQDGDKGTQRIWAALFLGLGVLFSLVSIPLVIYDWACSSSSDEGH

T1 sequence (Q63016 whole entry): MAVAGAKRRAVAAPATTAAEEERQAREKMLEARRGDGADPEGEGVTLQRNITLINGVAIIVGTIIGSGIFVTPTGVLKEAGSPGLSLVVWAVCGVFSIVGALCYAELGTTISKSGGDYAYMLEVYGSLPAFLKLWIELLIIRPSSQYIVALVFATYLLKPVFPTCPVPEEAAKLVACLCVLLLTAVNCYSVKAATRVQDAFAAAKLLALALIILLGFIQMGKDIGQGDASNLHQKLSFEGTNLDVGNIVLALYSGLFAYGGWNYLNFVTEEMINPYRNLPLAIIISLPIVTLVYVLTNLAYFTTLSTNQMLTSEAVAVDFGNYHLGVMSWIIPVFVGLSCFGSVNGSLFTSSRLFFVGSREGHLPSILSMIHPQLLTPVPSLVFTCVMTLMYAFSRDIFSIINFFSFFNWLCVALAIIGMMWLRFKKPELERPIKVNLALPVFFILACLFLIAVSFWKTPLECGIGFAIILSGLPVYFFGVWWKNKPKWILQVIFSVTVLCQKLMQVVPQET
T1 sequence (P08195 103-630 partner): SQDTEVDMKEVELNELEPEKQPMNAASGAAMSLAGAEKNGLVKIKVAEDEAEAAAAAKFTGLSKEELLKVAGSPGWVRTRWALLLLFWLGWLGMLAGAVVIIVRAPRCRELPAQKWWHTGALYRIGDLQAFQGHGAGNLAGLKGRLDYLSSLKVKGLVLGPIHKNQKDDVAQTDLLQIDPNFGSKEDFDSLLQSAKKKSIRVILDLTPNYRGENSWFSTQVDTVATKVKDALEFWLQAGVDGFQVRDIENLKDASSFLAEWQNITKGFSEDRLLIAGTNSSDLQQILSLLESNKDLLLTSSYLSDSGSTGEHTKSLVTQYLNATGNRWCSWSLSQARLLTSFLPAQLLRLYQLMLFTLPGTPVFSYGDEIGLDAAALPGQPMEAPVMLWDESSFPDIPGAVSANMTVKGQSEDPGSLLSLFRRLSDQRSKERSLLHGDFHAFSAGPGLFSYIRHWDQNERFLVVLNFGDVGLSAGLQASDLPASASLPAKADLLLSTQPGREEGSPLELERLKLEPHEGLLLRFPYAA

SMILES	isoleucine uptake in Xenopus laevis oocytes expressing h4F2hc/rLAT1 (LAT1 (SLC7A5))	glutamine uptake in Xenopus laevis oocytes expressing hSNAT1 (SNAT1 (SLC38A1))
CC[C@H](C)[C@H](N)C(=O)O [isoleucine]	isoleucine transport was used to measure h4F2hc/rLAT1 activity	
NC(=O)CC[C@H](N)C(=O)O [glutamine]		Glutamine uptake was used to measure hSNAT1, hSNAT2, and hASCT2 activity
